Values quoted from earlier work, collected in patent publication US6423339B1, “Liquisolid systems and methods of preparing same” (priority 1996, dated 2002).

Key:
[1] = diuretic

Row | Compound | Solubility in water (descriptive) | Volume of alcohol in which 1 gram of drug is soluble (per 1 gram of drug) [mL] | Volume of chloroform in which 1 gram of drug is soluble (per 1 gram of drug) | Solubility in alcohol (descriptive) | Solubility in chloroform (descriptive) | further results
1 | NS(=O)(=O)c1cc2c(cc1Cl)NCNS2(=O)=O [Hydrochlorothiazide] | – | – | – | – | – | Potency relative to chlorothiazide [1]: 10 times
2 | C[C@]12C=CC(=O)C=C1CC[C@@H]1[C@@H]2C(=O)C[C@@]2(C)[C@H]1CC[C@]2(O)C(=O)CO [Prednisone] | very slightly soluble | 150 | 200 mL | – | – | –
3 | CCOC(=O)C(C)(C)Oc1ccc(Cl)cc1 [Clofibrate] | insoluble (1 part solute into 10,000 or more parts of water) | – | – | soluble | soluble | Solubility in other common organic solvents (descriptive): soluble; Stability (descriptive) (liquid drug): stable
4 | Cc1ccc(C)c(OCCCC(C)(C)C(=O)O)c1 [Gemflbrozil] | practically water-insoluble (1 part solute into 10,000 or more parts of water) | – | – | – | – | –
5 | CN1C(CCl)Nc2cc(Cl)c(S(N)(=O)=O)cc2S1(=O)=O (centres unmarked) [Methyclothiazide] | – | 92.5 | more than 10,000 ml | – | – | Solubility in acetone (descriptive): freely soluble; pka: 9.4; Volume of ether in which 1 gram of drug is soluble (per 1 gram of drug): 2,700 ml; Volume of water in which 1 gram of drug is soluble (per 1 gram of drug): more than 10,000 ml
6 | CC(=O)S[C@@H]1CC2=CC(=O)CC[C@]2(C)[C@H]2CC[C@@]3(C)[C@@H](CC[C@@]34CCC(=O)O4)[C@H]12 [Spironolactone] | practically insoluble | – | – | soluble | freely soluble | Solubility in fixed oils (descriptive): slightly soluble
